According to patent publication US8080529B2, “Macrolides with anti-inflammatory activity” (Glaxo Group Limited, priority 2005, dated 2011):
Read-outs that look alike come from different tables or passages of the source.

Columns and labels:
[1] = tested on: IL-8; assay: Inhibition of IL-8 production by stimulated human peripheral blood leukocytes in vitro; type: cell-based; details: Homo sapiens, Leukocyte, read-out: Percentage of inhibition of IL-8 production
Procedure, shortened: (§1)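 Values are percentage inhibition of cytokine release versus stimulated leukocytes lacking compound. Human blood leukocytes received 50 μM or 10 μM compound for 2 h before overnight LPS, PMA or zymosan stimulation, and supernatants were assayed by ELISA.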

[2] = tested on: Hep G2; assay: Cytotoxicity assay (MTT), Hep G2 cell line; type: cell-based; details: 24 h
Procedure, shortened: (§2)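 Hep G2 and A549 cells were cultured 24 h at 37° C in RPM medium with test compounds at 50 μM and 12.5 μM. MTT was added for 0.5-2 h and formazan read at 490 nm. Growth value calculated as OD490 treated/OD490 nontreated ×100.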

[3] = tested on: human peripheral blood mononuclear cells (PBMC); assay: Effects on human T-cell proliferation in vitro (3H-thymidine incorporation); type: cell-based; details: Homo sapiens, PBMC, read-out: Percentage of inhibition of proliferation of stimulated PBMC
Protocol: The influence of the various test compounds at two different concentrations (50 μM and 10 μM) on cell proliferation of human peripheral blood mononuclear cells (PBMC) was assessed. […] The cells were pulsed with 1 μCi of ^3H-thymidine (Amersham, USA) per well during the last 18 h of the culture, and were harvested on the 96-well filter (Packard Bioscience, USA) using a multiple cell harvester (Packard, USA). The incorporation of ^3H-thymidine in activated cells were measured using TopCount NXT (Packard, USA). […] The positive control refers to LPS-, PMA- or zymosan-stimulated samples that were not treated with test compounds.

[4] = tested on: IL-1α; assay: Inhibition of IL-1 production by stimulated human peripheral blood leukocytes in vitro; type: cell-based; details: Homo sapiens, Leukocyte, read-out: Percentage of inhibition of IL-1α production
[5] = tested on: TNF-α; assay: Inhibition of TNF-α production by stimulated human peripheral blood leukocytes in vitro; type: cell-based; details: Homo sapiens, Leukocyte, read-out: Percentage of inhibition of TNF-α production
Procedure, shortened: as §1

[6] = tested on: IL-6; assay: Inhibition of IL-6 production by stimulated human peripheral blood leukocytes in vitro; type: cell-based; details: Homo sapiens, Leukocyte, read-out: Percentage of inhibition of IL-6 production
Procedure, shortened: as §1

[7] = tested on: A549; assay: Cytotoxicity assay (MTT), A549 cell line; type: cell-based; details: 24 h
Procedure, shortened: as §2

[8] = tested on: TNF-α; assay: Lipopolysaccharide induced TNF-α production in Balb/cJ mice; type: in vivo; details: Mus musculus, ip, 1.5 h; 10 mg/kg intraperitoneally, 30 min before LPS; 90 min after LPS; read-out: % inhibition of TNF-α production (plasma)

| SMILES | inhibition at 10 µM ([1]; LPS-stimulated PBL) [%] | inhibition at 10 µM ([1]; PMA-stimulated PBL) [%] | inhibition at 10 µM ([1]; zymosan-stimulated PBL) [%] | inhibition at 50 µM ([1]; LPS-stimulated PBL) [%] | inhibition at 50 µM ([1]; PMA-stimulated PBL) [%] | inhibition at 50 µM ([1]; zymosan-stimulated PBL) [%] | Percentage of inhibition of cell growth ([2]; 12.5 μM) [%] | Percentage of inhibition of cell growth ([2]; 50 μM) [%] | inhibition at 10 µM ([4]; LPS-stimulated PBL) [%] | inhibition at 10 µM ([4]; PMA-stimulated PBL) [%] | inhibition at 10 µM ([4]; zymosan-stimulated PBL) [%] | inhibition at 50 µM ([4]; LPS-stimulated PBL) [%] | inhibition at 50 µM ([4]; PMA-stimulated PBL) [%] | inhibition at 50 µM ([4]; zymosan-stimulated PBL) [%] | inhibition at 10 µM ([5]; LPS-stimulated PBL) [%] | inhibition at 10 µM ([5]; PMA-stimulated PBL) [%] | inhibition at 10 µM ([5]; zymosan-stimulated PBL) [%] | inhibition at 50 µM ([5]; LPS-stimulated PBL) [%] | inhibition at 50 µM ([5]; PMA-stimulated PBL) [%] | inhibition at 50 µM ([5]; zymosan-stimulated PBL) [%] | further results |
| --- | --- | --- | --- | --- | --- | --- | --- | --- | --- | --- | --- | --- | --- | --- | --- | --- | --- | --- | --- | --- | --- |
| CC[C@H]1OC(=O)[C@H](C)[C@@H](O[C@H]2C[C@@](C)(OC)[C@@H](OC(=O)CCN(CC)CC)[C@H](C)O2)[C@H](C)[C@@H](O[C@@H]2O[C@H](C)C[C@H](N(C)C)[C@H]2O)[C@](C)(OC)C[C@@H](C)C(=O)[C@H](C)[C@H]2NC(=O)O[C@@]21C [Example 9, 11,12-Carbamate-11,12-dideoxy-4″-O-(3-diethylamino-propionyl)-6-O-methyl-erythromycin A] | 18 | 0 | 0 | 96 | 94 | 91 | 4 | 15 | 72 | 69 | 82 | 82 | 72 | 0 | 73 | 93 | 14 | 96 | 85 | 72 | inhibition at 10 µM ([3]; PHA): 91%; inhibition at 50 µM ([3]; PHA): 100%; inhibition at 10 µM ([3]; PMA + iono.): 17%; inhibition at 50 µM ([3]; PMA + iono.): 100%; inhibition at 10 µM ([6]; LPS-stimulated PBL): 22%; inhibition at 10 µM ([6]; PMA-stimulated PBL): 30%; inhibition at 10 µM ([6]; zymosan-stimulated PBL): 0%; inhibition at 50 µM ([6]; LPS-stimulated PBL): 100%; inhibition at 50 µM ([6]; PMA-stimulated PBL): 95%; inhibition at 50 µM ([6]; zymosan-stimulated PBL): 100%; Percentage of inhibition of cell growth ([7]; 12.5 μM): 0%; Percentage of inhibition of cell growth ([7]; 50 μM): 0% |
| CC[C@H]1OC(=O)[C@H](C)[C@@H](O[C@H]2C[C@@](C)(OC)[C@@H](OC(=O)CCN(CC)CC)[C@H](C)O2)[C@H](C)[C@@H](O[C@@H]2O[C@H](C)C[C@H](NC)[C@H]2O)[C@](C)(OC)C[C@@H](C)C(=O)N[C@H](C)[C@@H](O)[C@]1(C)O [Example 54, 3′-N-Demethyl-4″-O-(3-diethylaminopropionyl)-6-O-methyl-9a-aza-9a-homoerythromycin A] | 0 | 0 | 0 | 82 | 40 | 53 | 1 | 2 | 60 | 62 | 56 | 69 | 97 | 98 | 3 | 25 | 11 | 55 | 96 | 92 | inhibition in vivo at 10 mg/kg [8]: 58%; inhibition at 10 µM ([6]; LPS-stimulated PBL): 0%; inhibition at 10 µM ([6]; PMA-stimulated PBL): 0%; inhibition at 10 µM ([6]; zymosan-stimulated PBL): 9%; inhibition at 50 µM ([6]; LPS-stimulated PBL): 58%; inhibition at 50 µM ([6]; PMA-stimulated PBL): 71%; inhibition at 50 µM ([6]; zymosan-stimulated PBL): 87%; Percentage of inhibition of cell growth ([7]; 12.5 μM): 0%; Percentage of inhibition of cell growth ([7]; 50 μM): 0% |
